In brackets after ≈: the same amount, converted by molar mass. Where two headings read alike, the source gives them in different places.
Tests used:
S. aureus ATCC 25923 [1] = assay: Antibacterial activity, pre-exposure (planktonic cells and biofilm formation); format: cell-based, Staphylococcus aureus; conditions: for MIC / inhibition at 5 µM / inhibition at 10 µM / inhibition at 15 µM / inhibition at 25 µM: Staphylococcus aureus, ATCC25923; for inhibition at 5 µM / inhibition at 10 µM / inhibition at 15 µM / inhibition at 25 µM / Average inhibition %, biofilms viability / Average inhibition %, planktonic cells viability: pre-exposure, ± SD
Outline: (§1)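 Compounds are diluted in DMSO and plated, then bacteria are added to test prevention of growth and biofilm formation. After 18 h at 37 °C with shaking, planktonic OD and resazurin fluorescence are measured. Washed biofilms receive resazurin (30 min S. aureus, 60 min A. baumannii, 90 min P. aeruginosa, 37 °C), then crystal violet.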

S. aureus ATCC 25923 [2] = assay: Antibacterial activity, post-exposure on preformed 18-h-old biofilms; format: cell-based, Staphylococcus aureus; conditions: ± SD; for inhibition at 25 µM / inhibition at 50 µM / inhibition at 100 µM / inhibition at 200 µM: Staphylococcus aureus; for inhibition at 25 µM: ATCC25923, 25 µM; for inhibition at 50 µM: ATCC25923, 50 µM; for inhibition at 100 µM: ATCC25923, 100 µM; for inhibition at 200 µM: ATCC25923, 200 µM
Outline: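 Compounds were applied to preformed 18-h biofilms after medium change and left 24 h. Read-outs: planktonic OD plus resazurin fluorescence (20 μM), biofilm metabolic activity by resazurin 30 min at 37 °C, then biomass by crystal violet absorbance at 595 nm after ethanol fixation.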

S. aureus ATCC 12598 = assay: Antibacterial activity, pre-exposure; format: cell-based, Staphylococcus aureus; conditions: for Average inhibition %, biofilms viability / Average inhibition %, planktonic cells viability / inhibition at 5 µM / inhibition at 10 µM / inhibition at 15 µM / inhibition at 25 µM: S. aureus ATCC 12598, pre-exposure, ± SD
Outline: as §1

A. baumannii NCTC 13423 = assay: Antibacterial activity, pre-exposure; format: cell-based, Acinetobacter baumannii; conditions: for Average inhibition %, biofilms viability / Average inhibition %, planktonic cells viability / inhibition at 10 µM / inhibition at 15 µM / inhibition at 25 µM / inhibition at 50 µM: A. baumannii NCTC 13423, pre-exposure, ± SD; for inhibition at 10 µM / inhibition at 15 µM / inhibition at 25 µM / inhibition at 50 µM / MIC: Acinetobacter baumannii, NCTC13423
Outline: as §1

P. aeruginosa ATCC 9027 = assay: Antibacterial activity, pre-exposure; format: cell-based, Pseudomonas aeruginosa; conditions: for Average inhibition %, biofilms viability / Average inhibition %, planktonic cells viability / inhibition at 50 µM / inhibition at 100 µM / inhibition at 150 µM / inhibition at 200 µM: P. aeruginosa ATCC 9027, pre-exposure, ± SD; for inhibition at 50 µM / inhibition at 100 µM / inhibition at 150 µM / inhibition at 200 µM: Pseudomonas aeruginosa, ATCC9027
Outline: as §1

[3] = 10 µM, read-out: Average inhibition %, biofilms biomass
[4] = 10 µM, read-out: Average inhibition %, planktonic cells turbidity
[5] = 15 µM, read-out: Average inhibition %, biofilms biomass
[6] = 15 µM, read-out: Average inhibition %, planktonic cells turbidity
[7] = 25 µM, read-out: Average inhibition %, biofilms biomass
[8] = 25 µM, read-out: Average inhibition %, planktonic cells turbidity
[9] = read-out: Average inhibition %, biofilms biomass
[10] = read-out: Average inhibition %, planktonic cells turbidity
[11] = 50 µM, read-out: Average inhibition %, biofilms biomass
[12] = 50 µM, read-out: Average inhibition %, planktonic cells turbidity

MIC (S. aureus ATCC 25923 [1]; lowest concentration with no visible growth (>90% inhibition of turbidity and viability of planktonic cells), 18 h, read-out: MIC S. aureus ATCC 25923): 10 µM (≈ 3.59 µg/mL)
MIC (S. aureus ATCC 25923 [1]; read-out: MIC (S. aureus)): 10 µM (≈ 3.59 µg/mL)
MIC (S. aureus ATCC 12598; Staphylococcus aureus, ATCC12598, pre-exposure, 18 h, read-out: MIC S. aureus ATCC 12598): 10 µM (≈ 3.59 µg/mL)
MIC (A. baumannii NCTC 13423; pre-exposure, Inactive = no activity up to 50 μM, > = some inhibition but no MIC reached, read-out: MIC A. baumannii NCTC 13423): 15 to 25 µM (≈ 5.38 to 8.96 µg/mL)
MIC (A. baumannii NCTC 13423; supplementary molecular formula strings sheet, read-out: MIC (A. baumannii)): 15 to 25 µM (≈ 5.38 to 8.96 µg/mL)
MIC P. aeruginosa ATCC 9027 (P. aeruginosa ATCC 9027; pre-exposure, Inactive = no activity up to 200 μM, > = some inhibition but no MIC reached): Inactive
SMILES: CCCCCCCCc1ccc2nc(CCC(N)(CO)CO)ccc2c1 [Compound 80, 2-Amino-2-[2-(6-octylquinolin-2-yl)ethyl]propane-1,3-diol]
inhibition at 5 µM (S. aureus ATCC 25923 [1]; 5 µM, read-out: Average inhibition %, biofilms biomass): 24.2 ± 6.6%
inhibition at 5 µM (S. aureus ATCC 25923 [1]; 5 µM, read-out: Average inhibition %, planktonic cells turbidity): 43 ± 17%
inhibition at 10 µM (S. aureus ATCC 25923 [1]; [3]): 97.6 ± 1%
inhibition at 10 µM (S. aureus ATCC 25923 [1]; [4]): 99 ± 0.7%
inhibition at 15 µM (S. aureus ATCC 25923 [1]; [5]): 97.3 ± 0.6%
inhibition at 15 µM (S. aureus ATCC 25923 [1]; [6]): 99.5 ± 0.3%
inhibition at 25 µM (S. aureus ATCC 25923 [1]; [7]): 92.3 ± 1.5%
inhibition at 25 µM (S. aureus ATCC 25923 [1]; [8]): 99.1 ± 0.3%
Average inhibition %, biofilms viability (S. aureus ATCC 25923 [1]; 5 µM): 26.7 ± 15.1%
Average inhibition %, planktonic cells viability (S. aureus ATCC 25923 [1]; 5 µM): 13.9 ± 22.4%
Average inhibition %, biofilms viability (S. aureus ATCC 25923 [1]; 10 µM): 99.2 ± 1.4%
Average inhibition %, planktonic cells viability (S. aureus ATCC 25923 [1]; 10 µM): 99.4 ± 0%
Average inhibition %, biofilms viability (S. aureus ATCC 25923 [1]; 15 µM): 99.5 ± 0.5%
Average inhibition %, planktonic cells viability (S. aureus ATCC 25923 [1]; 15 µM): 99.5 ± 0%
Average inhibition %, biofilms viability (S. aureus ATCC 25923 [1]; 25 µM): 99.4 ± 0.3%
Average inhibition %, planktonic cells viability (S. aureus ATCC 25923 [1]; 25 µM): 99.7 ± 0%
Average inhibition %, biofilms viability (S. aureus ATCC 25923 [2]; 25 µM): 13.8 ± 11.7%
Average inhibition %, planktonic cells viability (S. aureus ATCC 25923 [2]; 25 µM): 17.5 ± 26.7%
Average inhibition %, biofilms viability (S. aureus ATCC 25923 [2]; 50 µM): 29.8 ± 10.2%
Average inhibition %, planktonic cells viability (S. aureus ATCC 25923 [2]; 50 µM): 21.5 ± 33.1%
Average inhibition %, biofilms viability (S. aureus ATCC 25923 [2]; 100 µM): 48.6 ± 5.2%
Average inhibition %, planktonic cells viability (S. aureus ATCC 25923 [2]; 100 µM): 81 ± 8%
Average inhibition %, biofilms viability (S. aureus ATCC 25923 [2]; 200 µM): 48.4 ± 12%
Average inhibition %, planktonic cells viability (S. aureus ATCC 25923 [2]; 200 µM): 93.2 ± 1.3%
inhibition at 25 µM (S. aureus ATCC 25923 [2]; [9]): 25.1 ± 16.4%
inhibition at 25 µM (S. aureus ATCC 25923 [2]; [10]): 31.7 ± 26.5%
inhibition at 50 µM (S. aureus ATCC 25923 [2]; [9]): 50.2 ± 3.2%
inhibition at 50 µM (S. aureus ATCC 25923 [2]; [10]): 26 ± 39.1%
inhibition at 100 µM (S. aureus ATCC 25923 [2]; [9]): 61.9 ± 7.7%
inhibition at 100 µM (S. aureus ATCC 25923 [2]; [10]): 64.3 ± 18.5%
inhibition at 200 µM (S. aureus ATCC 25923 [2]; [9]): 51.5 ± 9.6%
inhibition at 200 µM (S. aureus ATCC 25923 [2]; [10]): 73.4 ± 9.8%
Average inhibition %, biofilms viability (S. aureus ATCC 12598; 5 µM): 24.6 ± 6.8%
Average inhibition %, planktonic cells viability (S. aureus ATCC 12598; 5 µM): 7.3 ± 12.6%
Average inhibition %, biofilms viability (S. aureus ATCC 12598; 10 µM): 99.2 ± 0.3%
Average inhibition %, planktonic cells viability (S. aureus ATCC 12598; 10 µM): 99.7 ± 0%
Average inhibition %, biofilms viability (S. aureus ATCC 12598; 15 µM): 99.5 ± 0.1%
Average inhibition %, planktonic cells viability (S. aureus ATCC 12598; 15 µM): 99.6 ± 0%
Average inhibition %, biofilms viability (S. aureus ATCC 12598; 25 µM): 99.5 ± 0.2%
Average inhibition %, planktonic cells viability (S. aureus ATCC 12598; 25 µM): 99.6 ± 0%
inhibition at 5 µM (S. aureus ATCC 12598; Staphylococcus aureus, ATCC12598, 5 µM, read-out: Average inhibition %, biofilms biomass): 34.3 ± 18.8%
inhibition at 5 µM (S. aureus ATCC 12598; Staphylococcus aureus, ATCC12598, 5 µM, read-out: Average inhibition %, planktonic cells turbidity): 22.7 ± 5.4%
inhibition at 10 µM (S. aureus ATCC 12598; Staphylococcus aureus, ATCC12598, 10 µM, read-out: Average inhibition %, biofilms biomass): 96.5 ± 1%
inhibition at 10 µM (S. aureus ATCC 12598; Staphylococcus aureus, ATCC12598, 10 µM, read-out: Average inhibition %, planktonic cells turbidity): 99.6%
inhibition at 15 µM (S. aureus ATCC 12598; Staphylococcus aureus, ATCC12598, 15 µM, read-out: Average inhibition %, biofilms biomass): 93.4 ± 1.2%
inhibition at 15 µM (S. aureus ATCC 12598; Staphylococcus aureus, ATCC12598, 15 µM, read-out: Average inhibition %, planktonic cells turbidity): 99.5 ± 0.1%
inhibition at 25 µM (S. aureus ATCC 12598; Staphylococcus aureus, ATCC12598, 25 µM, read-out: Average inhibition %, biofilms biomass): 89.4 ± 0.6%
inhibition at 25 µM (S. aureus ATCC 12598; Staphylococcus aureus, ATCC12598, 25 µM, read-out: Average inhibition %, planktonic cells turbidity): 98.9 ± 0.3%
Average inhibition %, biofilms viability (A. baumannii NCTC 13423; 10 µM): 0 ± 0%
Average inhibition %, planktonic cells viability (A. baumannii NCTC 13423; 10 µM): 7.2 ± 5.2%
Average inhibition %, biofilms viability (A. baumannii NCTC 13423; 15 µM): 71.9 ± 26.2%
Average inhibition %, planktonic cells viability (A. baumannii NCTC 13423; 15 µM): 98.9 ± 0.3%
Average inhibition %, biofilms viability (A. baumannii NCTC 13423; 25 µM): 101.6 ± 1.6%
Average inhibition %, planktonic cells viability (A. baumannii NCTC 13423; 25 µM): 99.6 ± 0.1%
Average inhibition %, biofilms viability (A. baumannii NCTC 13423; 50 µM): 101.8 ± 1.3%
Average inhibition %, planktonic cells viability (A. baumannii NCTC 13423; 50 µM): 99.5 ± 0.2%
inhibition at 10 µM (A. baumannii NCTC 13423; [3]): 1.6 ± 2.8%
inhibition at 10 µM (A. baumannii NCTC 13423; [4]): 0.8 ± 1.5%
inhibition at 15 µM (A. baumannii NCTC 13423; [5]): 53 ± 33.4%
inhibition at 15 µM (A. baumannii NCTC 13423; [6]): 96.4 ± 3%
inhibition at 25 µM (A. baumannii NCTC 13423; [7]): 84.3 ± 5.9%
inhibition at 25 µM (A. baumannii NCTC 13423; [8]): 99 ± 0.9%
inhibition at 50 µM (A. baumannii NCTC 13423; [11]): 74.7 ± 11.4%
inhibition at 50 µM (A. baumannii NCTC 13423; [12]): 98.8 ± 0.9%
Average inhibition %, biofilms viability (P. aeruginosa ATCC 9027; 50 µM): 9.8 ± 12.2%
Average inhibition %, planktonic cells viability (P. aeruginosa ATCC 9027; 50 µM): 39.9 ± 11%
Average inhibition %, biofilms viability (P. aeruginosa ATCC 9027; 100 µM): 10.5 ± 10%
Average inhibition %, planktonic cells viability (P. aeruginosa ATCC 9027; 100 µM): 46.1 ± 11.6%
Average inhibition %, biofilms viability (P. aeruginosa ATCC 9027; 150 µM): 14.3 ± 12.2%
Average inhibition %, planktonic cells viability (P. aeruginosa ATCC 9027; 150 µM): 22.9 ± 1.7%
Average inhibition %, biofilms viability (P. aeruginosa ATCC 9027; 200 µM): 15.3 ± 15.9%
Average inhibition %, planktonic cells viability (P. aeruginosa ATCC 9027; 200 µM): 33.1 ± 16.1%
inhibition at 50 µM (P. aeruginosa ATCC 9027; [11]): 5.2 ± 5.2%
inhibition at 50 µM (P. aeruginosa ATCC 9027; [12]): 48 ± 11.1%
inhibition at 100 µM (P. aeruginosa ATCC 9027; 100 µM, read-out: Average inhibition %, biofilms biomass): 0%
inhibition at 100 µM (P. aeruginosa ATCC 9027; 100 µM, read-out: Average inhibition %, planktonic cells turbidity): 55.5 ± 5.2%
inhibition at 150 µM (P. aeruginosa ATCC 9027; 150 µM, read-out: Average inhibition %, biofilms biomass): 12.1 ± 10.7%
inhibition at 150 µM (P. aeruginosa ATCC 9027; 150 µM, read-out: Average inhibition %, planktonic cells turbidity): 42.1 ± 13.6%
inhibition at 200 µM (P. aeruginosa ATCC 9027; 200 µM, read-out: Average inhibition %, biofilms biomass): 12.3 ± 19.1%
inhibition at 200 µM (P. aeruginosa ATCC 9027; 200 µM, read-out: Average inhibition %, planktonic cells turbidity): 55.3 ± 0.9%

From paper PMC8296573, “Synthesis and Biological Evaluation of Fingolimod Derivatives as Antibacterial Agents” (ACS Omega, 2021)
